From patent US12251478B2 (Arizona Board of Regents on behalf of Arizona State …, priority 2019, dated 2025)

How the values were obtained:
[1] = system: acute and slow healing diabetic wounds; experiment: Full-thickness punch biopsy wound model, statements covering acute and diabetic wounds together; assay type: in vivo, mice; settings: histamine applied topically on 5 mm full thickness wounds, covered with Tegaderm or silk dressing, 800 nm NIR laser
Source text: (§1) The histamine composition was applied topically on 5-millimeter mid-dorsal full thickness wounds and covered with either Tegaderm™ (transparent film dressing) or a silk dressing and irradiated with 800 nm near infrared laser (NIR) light.
(§2) Post-wounding, the mice were recovered for 7-11 days and their healing kinetics were monitored for different treatment groups.
(§3) An example protocol is as follows. Full-thickness punch biopsy dorsal wounds were created on mice, bioactive wound dressing applied, and the wounds were splinted to prevent wound closure by contraction. Either immunomodulator molecule was delivered on the day of wounding or a later time-point to accelerate wound healing.

[2] = system: acute wounds; experiment: Acute wound healing, full-thickness punch biopsy wound model in immunocompetent mice; assay type: in vivo, BALB/c mice
Source text: as §1, §2, §3
FIG. 1 includes images of a wound closure procedure, which was performed with BALB/c mice (about 8-10 weeks old), with a wound size of about 5 mm (n=10), and with a histamine concentration of 3.4 mg/kg per mouse.
Additionally, Elastin-Like Polypeptide (ELP) was used alone as a control. We tested whether ELP in itself influenced healing efficacy. These studies were performed in BALB/c mice (acute wounds), 5 mm wounds, ELP concentration 2 μM (per wound/mouse). Histamine and GFNPs concentration were 3.4 mg/kg and 2 μM, respectively. Histamine and GFNPs concentration were same as previous reported studies. The GFNPs used in this study is SDF1-ELP.
A histamine double dosage control (e.g., two sequential dosage of histamine) was investigated. […] These studies were performed in BALB/c mice (acute wounds) and in 5 mm wounds. Histamine and GFNPs concentration were 3.4 mg/kg and 2 μM, respectively. Histamine and GFNPs concentration were same as previous reported studies. The GFNPs used in this study is SDF1-ELP. We delivered histamine in the following manner: Histamine along with silk fibroin dressing on Day 0 post wounding (like previous studies); Histamine delivered on Day 3 post wounding. Wounds were treated with PBS and silk fibroin film alone on Day 0; Histamine along with silk fibroin on Day 0 post wounding+ second dose of histamine on Day 3 post wounding delivered using subcutaneous injection; and Histamine along with silk fibroin on Day 0 post wounding+ GFNPs delivered sequentially on Day 3 post wounding.

NCCc1c[nH]cn1 [histamine]
tissue biomechanical recovery [1]: improved tissue biomechanical recovery | wound area [1]: Significant reduction in wound area | contractile activity ([2]; acute wound model): higher contractile activity | neovascularization ([2]; acute wound model): higher neovascularization | re-epithelialization ([2]; acute wound model): higher re-epithelialization | reduction of the dermal gap of a wound ([2]; acute wound model): improves reduction of the dermal gap | resolution of inflammation ([2]; acute wound model): better solution of inflammation | tissue strength / ultimate tensile strength (UTS) of healed skin ([2]; acute wounds, day 7, compared between dressings with histamine or saline): higher skin strength recovery
